Here are results for one substance from PMC9764201, “Half-calcified calmodulin promotes basal activity and inactivation of the L-type calcium channel CaV1.2” (The Journal of Biological Chemistry, 2022).

The subject of the assay is CaV1.2. Kind of assay: Whole-cell patch clamp of CaV1.2 variants in HEK 293T/17 cells. The assay is classed as cell-based, rat. Particulars: interleaved WT, mean±SEM; for Imax Ba2+ (peak current density) / Imax Ba2+ (r300): 10 mM Ba^2+; for Imax Ba2+ (peak current density): 0 mV; for Imax Ca2+ (peak current density) / Imax Ca2+ (r300): 10 mM Ca^2+; for Imax Ca2+ (peak current density): +20 mV; for VDI300: 1-(Ba300/Bamax); for netCDI300: 1-(Ca300/Camax)/(Ba300/Bamax); for Imax Ba2+ (r300) / Imax Ca2+ (r300): fraction of maximal current remaining after 300 ms. The protocol: HEK 293T/17 cells (ATCC) were maintained as previously described ([15], [53]). For electrophysiology, Lipofectamine 2000 (Invitrogene) or JetPrime (Polyplus Transfection) was used to transiently transfect cells with indicated plasmid DNAs in 35 mm dishes. For biochemistry experiments, transient transfection of HEK 293T/17 cells in […] dishes was achieved using either JetPrime or, as previously described ([15], [53]), the calcium phosphate method. Cells were cotransfected with plasmids encoding the pore-forming α11.2 subunit N-terminally tagged with eCFP ([15], [53]) or mCherry ([54]) plus pGWIH-based plasmids encoding the auxiliary subunits rat β2A ([55]) and rabbit α2δ-1 ([56]) as previously described ([15], [53]). For all transfections, equimolar ratio of 1:1:1 was used for CaV1.2 channel subunits and later further optimized (JetPrime) for CaM (at ratio of 1:1:1:0.5 for α11.2:β2A:α2δ−1:CaM). Rat brain α11.2 (GenBank ID: M67515.1) N-terminally fused to eCFP was utilized as previously described ([15]). The point mutations in plasmids encoding single-residue I1654A, Y1657D (this report), and K1662E exchanges in α11.2 were generated via QuikChange II as previously described ([15], [53]) using N-terminally eCFP ([15], [53]) or mCherry tagged ([54]) rat brain α11.2 plasmid template DNAs. We studied CDI using mCherry-tagged α11.2 subunit coexpressed with the other, untagged CaV1.2 subunits and WT CaM or the calmodulin 34 mutant CaM34 (kindly provided by JP Adelman, ([8])). For some biochemical experiments shown in Fig. S2, YFP-tagged CaM was used ([32]).
Macroscopic Ba^2+- (IBa) and Ca^2+ currents (ICa) of CaV1.2 L-type Ca^2+ channels were obtained in the whole-cell configuration using external bath solution containing (in mM) 134 N-methyl-D-glucamine, 10 BaCl2 (for CDI, 10 CaCl2), 1 MgCl2, 10 Hepes, and 10 glucose with an adjusted pH of 7.4 (Cs-OH) and an osmolarity of 300 to 310 mOsm (sucrose). Intracellular pipette solution contained (in mM) 125 Cs-MeSO3, 5 CsCl, 10 EGTA, 10 Hepes, 1 MgCl2, 4 Mg-ATP, and pH 7.3 (CsOH), mOsm 290 to 300 (sucrose). Cells were clamped at a holding potential of -80 mV and depolarized for 900 ms to a series of activating potentials, from −60 mV to +50 mV (or +80 mV for Ca^2+ currents), in increments of 10 mV at an interval of 0.033 Hz. The series resistance and the cell capacitance were directly taken from the Amplifier (Axopatch 200B, Molecular Device) and compensated to ∼40%. Data were sampled at 10 kHz and lowpass filtered at 2 kHz. Leak subtracted raw data were analyzed with Pclamp10 and GraphPad Prism IX software. All recordings were performed at room temperature (RT).
Table S1. HEK 293T/17 cells were transiently transfected with eCFP-tagged rat CaV1.2 (WT versus I1654A and K1662E or versus Y1657D) plus α2δ1 and β2a and whole cell current recorded (see Fig. 3 for more details).
Panel A. Peak current density from I/V curves of whole-cell recordings. Imax values were determined at +20 mV for Ca2+ and 0 mV for Ba2+.
Panel B. r300 values and quantification of CDI and VDI. Whole-cell currents remaining after 300 ms of depolarization (r300) are given as fraction of maximal currents based on values in A. Net CDI was calculated as the ratiometric value net 1-(Ca300/Camax)/(Ba300/Bamax) and VDI as 1- […]
For each panel: Top: Analysis of interleaved recordings of CaV1.2 WT versus I1654A and K1662E IQ- mutants (one-way ANOVA with a Bonferroni post-hoc test; *p<0.05, **p<0.01 and ***p<0.001 and ****p<0.0001). Bottom: Analysis of interleaved recordings of CaV1.2 WT versus Y1657D IQ-mutant CaV1.2 (unpaired T-Test, *p<0.05 and ****p<0.0001). […]
mean±SEM and numbers in parentheses (n) are independent experiments.
IQ-variant ImaxCa2+(pA/pF) ImaxBa2+(pA/pF) p-value
In general terms: Patch clamp records ionic current or voltage across a cell membrane.

Regarding “CaV1.2: WT rat brain α11.2 with α2δ1 and β2A expressed in HEK 293T/17 cells”, for the setting “I1654A, K1662E”, the “Imax Ba2+ (peak current density)” value worked out at 46.7±9.1 pA/pF, the “Imax Ca2+ (peak current density)” value is 18.3±4.2 pA/pF, the VDI300 is reported as 0.19±0.02 and the netCDI300 was 0.59±0.04. Besides, for the setting “I1654A, K1662E”, the “Imax Ba2+ (r300)” value was 0.81±0.02 and the “Imax Ca2+ (r300)” value stood at 0.33±0.03. In addition, for the setting “Y1657D”, the “Imax Ba2+ (peak current density)” value stood at 21.8±4 pA/pF, the “Imax Ca2+ (peak current density)” value is given as 16.4±2.1 pA/pF, the VDI300 worked out at 0.17±0.02 and the netCDI300 worked out at 0.61±0.03. Also, where the note is “Y1657D”, the “Imax Ba2+ (r300)” value is reported as 0.83±0.02 and the “Imax Ca2+ (r300)” value amounted to 0.32±0.03.
